The results in this text go back to patent publication US20100008912A1, “COMBINATION DRUG” (TAKEDA PHARMACEUTICAL COMPANY LIMITED, priority 2006, published 2010).

In experiment [1] the test system is N87 (gastric cancer). Kind of experiment: Cell growth determination test of combined use, Combination Index, N87. The format is cell-based, human. The following applies: combined use with compound A. The procedure:
(§1) The cell density of the cell suspension was measured by cell counter Sysmex CDA500, and the cell density was adjusted to 4×10^4 cell/mL using the aforementioned medium, which was dispensed to each well of a 96 well multi-well culture plate (Nunc) by 0.15 mL and cultured overnight at 37° C., 5% CO2. […] After culturing at 37° C., 5% CO2 for 5 days, the cells of each well were fixed, stained and subjected to colorimetry. The effect of the combined use was determined by the method of Chou T C, Talalay P Adv.
(§2) The effect of combined use was determined by the method of Chou T C, Talalay P Adv.

The subject of experiment [2] is OE19 (esophageal cancer). Kind of experiment: Cell growth determination test of combined use, Combination Index, OE19. The format is cell-based, human. The following applies: combined use with compound A. The procedure: as §1, §2
The test system of experiment [3] is Human breast cancer cell line BT-474. Put plainly: Cell growth test of combined use, Combination Index by the method of Chou and Talalay, BT-474. The format is cell-based. The note with it: for Combination Index at the time of inhibition of cell growth by 50%: combined use with compound A, BT-474. The procedure:
as §1, §2

For experiment [4], the system named is Human breast cancer cell line BT-474 (HER2 high expressing). Kind of experiment: Tumor growth of BT-474 transplanted subcutaneously in nude mouse, combined use. The format is in vivo. The following applies: compound A 10 mg/mL, 10 mL/kg orally twice a day, 14 days, 10 mL/kg intraperitoneally twice a week. The procedure: (§3) Human breast cancer cell line BT-474 (ATCC (American Type Culture Collection) catalog No. HTB-20, Lasfargues E Y, In Vitro 15:723-729 (1979)), which is a passage cultured HER2 high expressing cell, was treated with trypsin and suspended in RPMI-1640 medium (GibcoInvitrogen) containing 10% bovine fetus serum (GibcoInvitrogen).
as §3

For experiment [5], the system named is HER2 high expressing clinical gastric cancer cell line (4-1ST). Put plainly: Tumor growth of 4-1ST tumor pieces transplanted subcutaneously in nude mouse, combined use. The format is in vivo.
Description: A tumor mass of 4-1ST (obtained from Central Institute for Experimental Animals), which was HER2 high expressing clinical gastric cancer cell line transplanted and passaged in vivo in nude mouse, was recovered from nude mouse, aseptically cut into 2 to 3 mm square pieces. The above-mentioned tumor piece was fixed on a trocar transplantation tool and transplanted subcutaneously into the abdomen of nude mouse. As a nude mouse for transplantation, BALB/cAJc l-nu/nu, female, 5-week-old mice were purchased from CLEA Japan, Inc. After 1 week of acclimation on receipt of the mice, the tumor piece was transplanted subcutaneously into the abdomen of 6-week-old mouse. The tumor volume was measured over time from 2 weeks after the transplantation and the mouse with a tumor volume of from 200 to 300 mm^3 was used for the test. Compound A was adjusted to a concentration of 10 mg/mL with 0.5% aqueous methylcellulose solution, and orally administered to mouse at a liquid amount of the above-mentioned compound A suspension of 10 mL/kg body weight. Compound A was administered twice a day in the morning and in the afternoon (administration interval was 7 hr or more) for 14 consecutive days. As for trastuzumab (Herceptin (trademark) (Genentech, Inc.) catalog No. NDC 50242-134-68), undiluted solution (21 mg/mL) was diluted to 1 mg/mL with saline, and intraperitoneally administered at a liquid amount of 10 mL/kg body weight. Trastuzumab was administered twice a week, totaling 4 times. The tumor volume was measured every 2 or 3 days, and the final tumor volume was measured on the next day of the completion of the 14 day administration and the effect of combined use was determined (FIG. 3). […] As for cetuximab (Erbitux (trademark)), undiluted solution (2 mg/mL) was intraperitoneally administered at a liquid amount of 10 mL/kg body weight. […] The tumor volume was measured every 2 or 3 days, and the final tumor volume was measured on the next day of the completion of the 14 day administration and the effect of combined use was determined (FIG. 4).
Experiment [6] concerns Human breast cancer cell line BT-474. Kind of experiment: Cell growth inhibitory assay, SRB staining method, BT-474. The format is cell-based. The following applies: in vitro; serially diluted; 5 days; BT-474 (FIG. 7). The procedure: (§4) Human breast cancer cell line BT-474 was treated with trypsin and suspended in RPMI 1640 medium (Invitrogen) containing 10% bovine fetus serum (Invitrogen). BT-474 cell was plated on a 96 well plate at 6000 cells/100 μL/well. The next day, fulvestrant alone, compound A alone or a mixture of fulvestrant and compound A was serially diluted and added. After addition of the compound, the mixture was stood in a CO2 incubator for 5 days. 50 μL of 25% glutaraldehyde solution (Wako) was added to 200 μL of medium and the mixture was left standing at room temperature for 15 min. The plate was washed with PBS once, 200 μL of PBS was added, 25 μL of 50% trichloroacetic acid was added, and the mixture was left standing at 4° C. for 1 hr or longer. The plate was washed 5 times with tap water, redundant water was removed by slamming the plate against Kimtowel. 50 μL of 0.4% (w/v) Sulforhodamine B (SRB, Sigma)-containing 1% (v/v) acetic acid solution was added to each well and, 15 min later, the plate was washed 3 times with 1% acetic acid solution (v/v). The plate was thoroughly dried, 10 mM Tris solution was added, and the mixture was stirred well with a plate shaker, and the absorbance at 550 nm was measured (Bio-Rad, Benchmark Plus). In calculation, a control free of a drug was 100% (FIG. 7).

Experiment [7] concerns Human breast cancer cell line MCF-7. Put plainly: Cell growth inhibitory assay, SRB staining method, MCF-7. The format is cell-based. The following applies: in vitro; serially diluted; 4 days; MCF-7 (FIG. 8). As for the experimental part:
Human breast cancer cell line MCF-7 cell was plated on a 96 well plate at 3000 cells/100 μL/well. The next day, fulvestrant alone, compound A alone or a mixture of fulvestrant and compound A was serially diluted and added.
as §4, with “After” for “Human breast cancer cell line BT-474 was treated with trypsin and suspended in RPMI 1640 medium (Invitrogen) containing 10% bovine fetus serum (Invitrogen). BT-474 cell was plated on a 96 well plate at 6000 cells/100 μL/well. The next day, fulvestrant alone, compound A alone or a mixture of fulvestrant and compound A was serially diluted and added. After”, “for 4” for “for 5”, “(FIG. 8).” for “(FIG. 7).”
Background: The SRB assay estimates cell density from bound dye.

The subject of experiment [8] is HER family genes (EGFR, HER2, HER3, HER4) in MCF-7 cell. Kind of experiment: HER family gene expression (TaqMan PCR) in MCF-7. The format is cell-based, human. The procedure:
MCF-7 cell was plated on a 6 well plate at 8.6×10^4 cells/well. The next day, the cells were treated with compound A (1 μM), fulvestrant (1 μM) or compound A (1 μM)+fulvestrant (1 μM). After 120 hr, total RNA was extracted using an RNeasy mini kit (Qiagen). 1 μg of total RNA was subjected to a Reverse Transcriptase reaction using a high capacity cDNA archive kit (P/N 4322171, Applied Biosystems) to give cDNA. The obtained cDNA was diluted 50-fold with Nuclease Free water (Promega), and 5 μL thereof was used for PCR reaction. 2×TaqMan Universal PCR Master Mix (12.5 μL) and 20×Probe & Primer (TaqMan Gene Expression Assays, 1.25 μL) and Nuclease Free water (6.25 μL) were blended. PCR reaction and analysis were performed using GeneAmp 7700 (Applied Biosystems). The reaction conditions were 50° C.×2 min, 95° C.×10 min, followed by 95° C.×15 sec, 60° C.×1 min, which cycle was repeated 40 times. For data analysis, calculation was made with GAPDH as an internal control and according to ? Ct method
For orientation: Real-time PCR tracks product formation cycle by cycle.

For experiment [9], the system named is HER2 high expressing cancer cells (BT-474, N87, Calu3, OE19). Kind of experiment: Cell growth determination test of combined use, summary over the four cell lines. The format is cell-based, human. The note with it: in vitro; summary of Table 1. The procedure:
(§5) Human breast cancer cell line BT-474 (ATCC (American Type Culture Collection) catalog No. HTB-20, Lasfargues E Y, In Vitro 15:723-729 (1979)), which is a passage cultured HER2 high expressing cell, was treated with trypsin and suspended in RPMI-1640 medium (GibcoInvitrogen) containing 10% bovine fetus serum (GibcoInvitrogen). The cell density of the cell suspension was measured by cell counter Sysmex CDA500, and the cell density was adjusted to 4×10^4 cell/mL using the aforementioned medium, which was dispensed to each well of a 96 well multi-well culture plate (Nunc) by 0.15 mL and cultured overnight at 37° C., 5% CO2. Thereto was added a medium containing compound A 40-200 nmol/L at a given concentration, a medium containing trastuzumab (Herceptin (trademark) (Genentech, Inc.) catalog No. NDC 50242-134-68, 79-400 ng/mL) at a given concentration, or a medium containing compound A 40-200 nmol/L and trastuzumab 79-400 ng/mL at a given concentration. […] The effect of the combined use was determined by the method of Chou T C, Talalay P Adv. […]
(§6) HER2 high expressing human cancer cell lines, BT-474 (breast cancer), N87 (gastric cancer), Calu3 (lung cancer) and OE19 (esophageal cancer), were purchased from ATCC and used for the experiments. […] The effect of combined use was determined by the method of Chou T C, Talalay P Adv.

Experiment [10] concerns Calu3 (lung cancer). Kind of experiment: Cell growth determination test of combined use, Combination Index, Calu3. The format is cell-based, human. The note with it: combined use with compound A; Calu-3. As for the experimental part: as §5, §6

Where a name gives a salt, the structure may show the parent alone.

`O=c1[nH]cc(F)c(=O)[nH]1` [Compound 5FU, 5FU]: the “Combination Index at the time of inhibition of cell growth by 50%” value in experiment [1] amounted to 0.95; in [2] it was 1.43.

As to `CC(C)(O)CC(=O)NCCn1ccc2ncnc(Nc3ccc(Oc4cccc(C(F)(F)F)c4)c(Cl)c3)c21` [Compound A, N-{2-[4-({3-chloro-4-[3-(trifluoromethyl)phenoxy]phenyl}amino)-5H-pyrrolo[3,2-d]pyrimidin-5-yl]ethyl}-3-hydroxy-3-methylbutanamide], the “Effect of combined use of compound A and trastuzumab on cell growth” value in experiment [3] (in vitro, compound A 40-200 nmol/L + trastuzumab 79-400 ng/mL, 5 days, Combination Index vs Fraction affected (FIG. 1)) is “synergistic effect”. Moreover, the “Effect of combined use of compound A and paclitaxel on tumor volume, compared to each agent alone” value in experiment [4] (paclitaxel 3 mg/mL, 4 times (FIG. 6)) is reported as “stronger action”. The “Effect of combined use of compound A and trastuzumab on tumor volume” value in experiment [4] (trastuzumab 1 mg/mL, 4 times, two-way analysis of variance (FIG. 2)) is recorded as “synergistic effect”; in experiment [5] (compound A 10 mg/mL, 10 mL/kg orally twice a day, 14 days, trastuzumab 1 mg/mL, 10 mL/kg intraperitoneally twice a week, 4 times (FIG. 3)), “synergistic effect”. In addition, in experiment [5] (compound A 10 mg/mL and erlotinib 2 mg/mL, each 10 mL/kg orally twice a day, 14 days (FIG. 5)), the “Effect of combined use of compound A and erlotinib on tumor volume” value was “synergistic effect”. Also, the “Effect of combined use of compound A and cetuximab on tumor volume” value in experiment [5] (compound A 10 mg/mL, 10 mL/kg orally twice a day, 14 days, cetuximab 2 mg/mL, 10 mL/kg intraperitoneally twice a week, 4 times (FIG. 4)) is “synergistic effect”. Besides, the “Cell growth inhibition by combined use of compound A and fulvestrant, compared to each alone” value in experiment [6] and in experiment [7] was “stronger cell growth inhibitory action” in each case. For the same compound, the “Action on HER signal” value in experiment [8] (compound A 1 μM alone or + fulvestrant 1 μM, 120 hr (FIG. 9)) is recorded as “HER signal blocking action”. In experiment [9], the “Effect of combined use of compound A and chemotherapeutic agents on cell growth” value is recorded as “additive effect”.

In the case of `CC(=O)O[C@@]12CO[C@@H]1C[C@H](O)[C@@]1(C)C(=O)[C@H](O)C3=C(C)[C@@H](OC(=O)[C@H](O)[C@@H](NC(=O)OC(C)(C)C)c4ccccc4)C[C@@](O)([C@@H](OC(=O)c4ccccc4)[C@H]21)C3(C)C` [docetaxel], the “Combination Index at the time of inhibition of cell growth by 50%” value in experiment [3] turned out to be 1.10; in experiment [1], 0.57; in [2], 0.94.

Take `COc1cccc2c1C(=O)c1c(O)c3c(c(O)c1C2=O)C[C@@](O)(C(=O)CO)C[C@@H]3O[C@H]1C[C@H](N)[C@H](O)[C@H](C)O1` [doxorubicin hydrochloride]: the “Combination Index at the time of inhibition of cell growth by 50%” value in [3] is given as 1.65; in experiment [10] it was 1.39; in experiment [2], 0.96.

In the case of `C[C@]12CC[C@@H]3c4ccc(O)cc4C[C@@H](CCCCCCCCC[S+]([O-])CCCC(F)(F)C(F)(F)F)[C@H]3[C@@H]1CC[C@@H]2O` (stereo partly drawn) [fulvestrant], the “HER family gene expression (EGFR, HER2, HER3, HER4), control group = 1” value in experiment [8] (1 μM, 120 hr, GAPDH as internal control (FIG. 9)) is recorded as “increase”.

With `CCc1c2c(nc3ccc(OC(=O)N4CCC(N5CCCCC5)CC4)cc13)-c1cc3c(c(=O)n1C2)COC(=O)[C@]3(O)CC` [irinotecan hydrochloride], the “Combination Index at the time of inhibition of cell growth by 50%” value in experiment [1] came out at 1.02; in [2], 0.83.
